From PubChem BioAssay (NCI)
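Test compounds were applied to cells in 96-well plates for 48 hours at 5 doses. TGI is the concentration that stops growth completely.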

Experiments:
Assay in all cases: inhibition of tumour cell growth, NCI panel, 48 h
RPMI-8226 leukemia = system: RPMI-8226 leukemia
IGROV1 ovarian = system: IGROV1 ovarian
MALME-3M melanoma = system: MALME-3M melanoma
HS 578T breast = system: HS 578T breast
MDA-MB-231 breast = system: MDA-MB-231 breast
SK-MEL-2 melanoma = system: SK-MEL-2 melanoma
OVCAR-5 ovarian = system: OVCAR-5 ovarian
BT-549 breast = system: BT-549 breast
DU-145 prostate = system: DU-145 prostate
SF-539 CNS = system: SF-539 CNS
SW-620 colon = system: SW-620 colon
SNB-19 CNS = system: SNB-19 CNS
NCI-H522 lung = system: NCI-H522 lung
SF-295 CNS = system: SF-295 CNS
786-0 renal = system: 786-0 renal
ACHN renal = system: ACHN renal
HOP-92 NSCLC = system: HOP-92 NSCLC
HCT-116 colon = system: HCT-116 colon
UACC-62 melanoma = system: UACC-62 melanoma
MDA-MB-435 = system: MDA-MB-435
MDA-N = system: MDA-N
HT29 colon = system: HT29 colon
SK-MEL-5 melanoma = system: SK-MEL-5 melanoma
HCC-2998 colon = system: HCC-2998 colon
M14 melanoma = system: M14 melanoma
HCT-15 colon = system: HCT-15 colon
MOLT-4 leukemia = system: MOLT-4 leukemia
EKVX NSCLC = system: EKVX NSCLC
SF-268 CNS = system: SF-268 CNS
SN12C renal = system: SN12C renal
CAKI-1 renal = system: CAKI-1 renal
UACC-257 melanoma = system: UACC-257 melanoma
UO-31 renal = system: UO-31 renal
SK-OV-3 ovarian = system: SK-OV-3 ovarian
MCF7 breast = system: MCF7 breast
LOX IMVI melanoma = system: LOX IMVI melanoma
TK-10 renal = system: TK-10 renal
T-47D breast = system: T-47D breast
SNB-75 CNS = system: SNB-75 CNS
K-562 leukemia = system: K-562 leukemia
RXF 393 renal = system: RXF 393 renal
CCRF-CEM leukemia = system: CCRF-CEM leukemia
HL-60(TB) leukemia = system: HL-60(TB) leukemia
PC-3 prostate = system: PC-3 prostate
A498 renal = system: A498 renal
OVCAR-8 ovarian = system: OVCAR-8 ovarian
OVCAR-4 ovarian = system: OVCAR-4 ovarian
NCI-H460 lung = system: NCI-H460 lung
NCI/ADR-RES ovarian = system: NCI/ADR-RES ovarian
U251 CNS = system: U251 CNS
KM12 colon = system: KM12 colon
COLO 205 colon = system: COLO 205 colon
HOP-62 NSCLC = system: HOP-62 NSCLC
NCI-H23 lung = system: NCI-H23 lung
SK-MEL-28 melanoma = system: SK-MEL-28 melanoma
A549 NSCLC = system: A549 NSCLC
OVCAR-3 ovarian = system: OVCAR-3 ovarian

SMILES: CCOC(=O)C1=C(C)NC(C)=C(C(=O)OCC)C1c1ccc(Cl)cc1
- TGI (RPMI-8226 leukemia): 52.8 µM
- TGI (IGROV1 ovarian): 30.9 µM
- TGI (MALME-3M melanoma): 34.6 µM
- TGI (HS 578T breast): 42.2 µM
- TGI (MDA-MB-231 breast): 33.6 µM
- TGI (SK-MEL-2 melanoma): 34.5 µM
- TGI (OVCAR-5 ovarian): 27 µM
- TGI (BT-549 breast): 32.7 µM
- TGI (DU-145 prostate): 31.9 µM
- TGI (SF-539 CNS): 37.3 µM
- TGI (SW-620 colon): 36.2 µM
- TGI (SNB-19 CNS): 31.3 µM
- TGI (NCI-H522 lung): 32.2 µM
- TGI (SF-295 CNS): 26.3 µM
- TGI (786-0 renal): 26.5 µM
- TGI (ACHN renal): 30.8 µM
- TGI (HOP-92 NSCLC): 24 µM
- TGI (HCT-116 colon): 22 µM
- TGI (UACC-62 melanoma): 26.7 µM
- TGI (MDA-MB-435): 28.9 µM
- TGI (MDA-N): 26.9 µM
- TGI (HT29 colon): 24.8 µM
- TGI (SK-MEL-5 melanoma): 28.1 µM
- TGI (HCC-2998 colon): 30.4 µM
- TGI (M14 melanoma): 31 µM
- TGI (HCT-15 colon): 41.6 µM
- TGI (MOLT-4 leukemia): 24.8 µM
- TGI (EKVX NSCLC): 31.3 µM
- TGI (SF-268 CNS): 34.6 µM
- TGI (SN12C renal): 34.5 µM
- TGI (CAKI-1 renal): 30.7 µM
- TGI (UACC-257 melanoma): 27.4 µM
- TGI (UO-31 renal): 36.4 µM
- TGI (SK-OV-3 ovarian): 31.7 µM
- TGI (MCF7 breast): 38.7 µM
- TGI (LOX IMVI melanoma): 34.4 µM
- TGI (TK-10 renal): 29.2 µM
- TGI (T-47D breast): 35.2 µM
- TGI (SNB-75 CNS): 33.5 µM
- TGI (K-562 leukemia): 44.6 µM
- TGI (RXF 393 renal): 28.3 µM
- TGI (CCRF-CEM leukemia): 28.3 µM
- TGI (HL-60(TB) leukemia): 8.15 µM
- TGI (PC-3 prostate): 33.9 µM
- TGI (A498 renal): 31.2 µM
- TGI (OVCAR-8 ovarian): 41.4 µM
- TGI (OVCAR-4 ovarian): 26.9 µM
- TGI (NCI-H460 lung): 19.9 µM
- TGI (NCI/ADR-RES ovarian): 48.1 µM
- TGI (U251 CNS): 34.6 µM
- TGI (KM12 colon): 40.4 µM
- TGI (COLO 205 colon): 32.4 µM
- TGI (HOP-62 NSCLC): 30.8 µM
- TGI (NCI-H23 lung): 32.1 µM
- TGI (SK-MEL-28 melanoma): 37 µM
- TGI (A549 NSCLC): 34.3 µM
- TGI (OVCAR-3 ovarian): 30.5 µM
